Tests used:
Experiment in all cases: biochemical
[1] = tested on: drug-resistant HIV-1 PR (PR02-A) harboring L10I/G48S/I54V/V82F/L90M mutations; conditions: IC50 of drug-resistant PR divided by IC50 of WT PR
Experimental: (§1) In vitro transcription and cell-free protein synthesis were performed using WEPRO7240 wheat germ extract (CellFree Sciences, Yokohama, Japan). Transcription was performed using SP6 RNA polymerase, as described previously ([Matsunaga et al., 2014]). The translation reaction was performed in bilayer mode with slight modifications. Briefly, translation mixture (forming the bottom layer) consisted of 10 μl of each mRNA (usually 30–35 μg), 10 μl of WEPRO7240 (CellFree Sciences, Yokohama, Japan), and 0.8 μl of 1 μg/μl creatine kinase (Roche Diagnostics K. K., Tokyo, Japan) in 20.8 μl of SUB-AMIX® (CellFree Sciences, Yokohama, Japan). SUB-AMIX (206 μl) was placed on top of the translation mixture, thus forming the top layer. After incubation at 16°C for 16 h, synthesized proteins were confirmed by immunoblotting. For biotinylation of the substrate, 1 μl (50 ng) of crude biotin ligase (BirA) expressed in a wheat germ cell-free system was added to the bottom layer, and 0.5 μM (final concentration) of D-biotin (Nacalai Tesque, Inc., Kyoto, Japan) was added to both the top and bottom layers, as described previously ([Matsuoka et al., 2010]). As an initial experimental test, radiolabeled protein was produced by cell-free synthesis to confirm the yield and solubility of generated proteins as described previously ([Kamura et al., 2005]). In actual drug susceptibility testing, quantitations of synthesized HIV-1 PR proteins were performed by densitometric scanning of Coomassie Brilliant Blue (CBB)-stained bands as compared with purified HIV-1 PR or bovine serum albumin (BSA) ([Madin et al., 2000]).
(§2) CFDSA was performed using cell-free–synthesized PR, substrate peptide, and the AlphaScreen® system (PerkinElmer, Boston, MA, USA). […] The mixture was incubated at 37°C for 30 min in a 384-well Alphaplate (PerkinElmer). The enzymatic reaction was initiated by the addition of 5 μl of 0.25 μM cell-free–synthesized GST-p2/p7-bls substrate to each well, followed by incubation at 37°C for 2 h. Detection of PR activity was performed essentially as described in the AlphaScreen IgG detection kit instruction manual (PerkinElmer). Briefly, 10 μl of detection mixture containing 20 mM Tris-HCl (pH 7.5), 0.2 mM DTT, 5 mM MgCl2, 5 μg/ml anti-GST antibody, 1 mg/ml BSA, 0.1 μl streptavidin-coated donor beads, and 0.1 μl anti-IgG acceptor beads were added to each well of the 384-well plate, followed by incubation at 23°C for 1 h in the dark. Luminescence signals were analyzed with the AlphaScreen detection program using the EnSpire software (PerkinElmer), and light intensities in the presence of the serially diluted inhibitors were used to calculate their IC50 values. PI-resistance levels were determined by comparing the IC50 values of drug-resistant PR with those of NL4-3 PR. The results for each PR were normalized based on protein productivity, as determined by liquid scintillation counting. IC50 values were calculated using XLfit (ID BUSINESS SOLUTIONS, Guildford, UK). The criteria for CFDSA measurement of resistance were as follows: fold resistance value (FRV) = IC50 ratio of test PR/IC50 ratio of WT PR.
(§3) For the quantitative and high-throughput measurement of HIV-1 PR activity using AlphaScreen technology, we designed a reporter substrate comprising a partial Gag p2-p7 junction peptide flanked by N-terminal GST and C-terminal biotin binding sequence (GST-p2/p7-biotin) as described in Figure 2A.

WT HIV-1 PR (NL4-3) = WT HIV-1 PR (NL4-3) (Human immunodeficiency virus type 1 group M subtype B, UniProt P12497)
Experimental: as §1, §2, §3

[2] = target: drug-resistant HIV-1 PR (PR02-A) harboring L10I/G48S/I54V/V82F/L90M mutations (Human immunodeficiency virus type 1 group M subtype B, UniProt P12497, G536S/I542V/L498I/L578M/V570F)
Experimental: as §1, §2, §3

SMILES | fold-resistance to WT PR (FRV, DR/WT) [1] [fold] | IC50 (WT HIV-1 PR (NL4-3)) [µM] | IC50 [2] [µM]
COC(=O)N[C@H](C(=O)N[C@@H](Cc1ccccc1)[C@@H](O)CN(Cc1ccc(-c2ccccn2)cc1)NC(=O)[C@@H](NC(=O)OC)C(C)(C)C)C(C)(C)C [ATV, atazanavir] | 7.7 | 0.0178 | 0.137
CC(C)CN(C[C@@H](O)[C@H](Cc1ccccc1)NC(=O)O[C@H]1CCOC1)S(=O)(=O)c1ccc(N)cc1 [APV, amprenavir] | 4.0 | 0.0232 | 0.0935
